Measured values from PubChem BioAssay (NCI).
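Briefly, cells in 96-well plates were exposed to five compound concentrations for 48 h, and endpoints were estimated by linear interpolation. GI50: concentration for 50% inhibition of growth. TGI is the concentration that stops growth completely.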

Experiments:
Assay in all cases: NCI tumour cell line growth inhibition, 48 h; in the data active = GI50 below about 0.43 µM; inactive = the rest
SF-295 CNS = system: SF-295 CNS
SF-539 CNS = system: SF-539 CNS
ACHN renal = system: ACHN renal
HOP-62 NSCLC = system: HOP-62 NSCLC
RPMI-8226 leukemia = system: RPMI-8226 leukemia
SK-MEL-28 melanoma = system: SK-MEL-28 melanoma
786-0 renal = system: 786-0 renal
BT-549 breast = system: BT-549 breast
MDA-N = system: MDA-N
M19-MEL melanoma = system: M19-MEL melanoma
P388/ADR leukemia = system: P388/ADR leukemia
P388 leukemia = system: P388 leukemia
SN12K1 renal = system: SN12K1 renal
XF 498 CNS = system: XF 498 CNS

NCCCCCCNc1cc(-c2cccc(OC(F)(F)F)c2)nc2ccc(N3CCCC3)cc12
3 µM: TGI (SF-539 CNS)
3.15 µM: TGI (SF-295 CNS)
inactive: GI50 (SF-295 CNS) 1.75 µM | GI50 (SF-539 CNS) 1.59 µM | GI50 (ACHN renal) 1.74 µM
3.11 µM: TGI (ACHN renal)

CCCCCCCCCC[C@@H](O)[C@@H]1CC[C@@H]([C@@H]2CC[C@@H]([C@@H](O)CCCCCCCCCCC(O)CC3=CC(C)OC3=O)O2)O1 (some centres not stated)
> 10 µM: TGI (SF-295 CNS) | TGI (HOP-62 NSCLC) | TGI (RPMI-8226 leukemia) | TGI (SF-539 CNS) | TGI (SK-MEL-28 melanoma) | TGI (ACHN renal)

O=C(O)C(Cc1cccs1)C(=O)O
> 100 µM: TGI (786-0 renal) | TGI (HOP-62 NSCLC) | TGI (RPMI-8226 leukemia) | TGI (SK-MEL-28 melanoma) | TGI (BT-549 breast) | TGI (MDA-N) | TGI (ACHN renal)

COc1ccc(-c2cn3ccnc3c(-c3ccc4ncn(C5CCCCC5)c4c3)n2)cc1
active: GI50 (BT-549 breast) 0.41 µM
> 100 µM: TGI (RPMI-8226 leukemia) | TGI (SK-MEL-28 melanoma) | TGI (ACHN renal)
inactive: GI50 (RPMI-8226 leukemia) 2.96 µM | GI50 (SK-MEL-28 melanoma) 2.1 µM | GI50 (ACHN renal) 0.692 µM
3.91 µM: TGI (BT-549 breast)

CC(NCCS(=O)(=O)O)C(=O)O (configuration not stated)
> 100 µM: TGI (M19-MEL melanoma) | TGI (SF-295 CNS) | TGI (P388/ADR leukemia) | TGI (P388 leukemia) | TGI (HOP-62 NSCLC) | TGI (RPMI-8226 leukemia) | TGI (SF-539 CNS) | TGI (SN12K1 renal) | TGI (SK-MEL-28 melanoma) | TGI (XF 498 CNS)
